pIC50: −log10 of the molar value. Counter-ions that a name gives are not always drawn.
What was measured:
U-251 = assay: Antiproliferative activity against human U251 cells assessed as reduction in cell viability after 72 hrs by MTT assay; type: functional, cell-based; settings: U-251, 72 h
U-87 MG = assay: Antiproliferative activity against human U87 cells assessed as reduction in cell viability after 72 hrs by MTT assay; type: functional, cell-based, U-87MG ATCC
[1] = Antiproliferative activity against human SHG44 cells assessed as reduction in cell viability after 72 hrs by MTT assay; type: functional, cell-based; settings: SHG-44, 72 h
NIH3T3 = assay: Cytotoxicity against mouse 3T3 cells assessed as reduction in cell viability after 72 hrs by MTT assay; type: cell-based; settings: NIH3T3, 72 h
C6 = assay: Antiproliferative activity against rat C6 cells assessed as reduction in cell viability after 72 hrs by MTT assay; type: functional, cell-based; settings: C6, 72 h
U-118-MG = assay: Antiproliferative activity against human U118MG cells assessed as reduction in cell viability after 72 hrs by MTT assay; type: functional, cell-based
SF-126 = assay: Antiproliferative activity against human SF126 cells assessed as reduction in cell viability after 72 hrs by MTT assay; type: functional, cell-based; settings: SF-126, 72 h
Pyruvate kinase PKM = Pyruvate kinase PKM (Homo sapiens, UniProt P14618); assay: Activation of recombinant human N-terminal 6His-tagged PKM2 expressed in Escherichia coli BL21 cells at 10 uM after 30 mins by fluorescence based analysis relative to control
Sequence of Pyruvate kinase PKM (P14618 2-531 limits assumed): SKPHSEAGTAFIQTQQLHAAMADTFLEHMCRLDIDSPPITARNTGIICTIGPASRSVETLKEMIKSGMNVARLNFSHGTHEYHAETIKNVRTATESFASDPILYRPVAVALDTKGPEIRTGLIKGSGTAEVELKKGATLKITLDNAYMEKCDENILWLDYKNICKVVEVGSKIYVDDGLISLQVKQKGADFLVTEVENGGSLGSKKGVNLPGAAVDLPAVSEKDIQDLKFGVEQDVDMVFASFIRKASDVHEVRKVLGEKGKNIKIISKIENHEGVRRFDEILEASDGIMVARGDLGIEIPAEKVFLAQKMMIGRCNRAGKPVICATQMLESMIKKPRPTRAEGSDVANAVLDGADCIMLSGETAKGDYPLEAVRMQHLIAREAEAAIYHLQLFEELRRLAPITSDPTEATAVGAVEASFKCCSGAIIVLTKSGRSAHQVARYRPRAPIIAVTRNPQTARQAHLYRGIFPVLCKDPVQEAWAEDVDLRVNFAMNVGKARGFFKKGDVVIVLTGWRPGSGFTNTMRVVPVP

Row | SMILES | pIC50 (U-251) | pIC50 (U-87 MG) | fold change (FC) (Pyruvate kinase PKM) | pIC50 [1] | pIC50 (NIH3T3) | pIC50 (C6) | pIC50 (U-118-MG) | pIC50 (SF-126)
1 | C=C1C(=O)O[C@H]2[C@H]1CC/C(C(=O)OCCOCCOCCOCCOCCOCCOCCOCCOCCOCCOCCOCCOCCOCCOCCOCCOCCOCCOCCOCCOCCOCCOCCOCCOC(=O)/C1=C/CC[C@@]3(C)O[C@H]3[C@H]3OC(=O)C(=C)[C@@H]3CC1)=C\CC[C@@]1(C)O[C@@H]21 | < 4.30 | < 4.30 | > 2 | < 4.30 | < 4.30 | < 4.30 | < 4.30 | < 4.30
2 | C=C1C(=O)O[C@H]2[C@H]1CC/C(C(=O)OCCOCCOCCOCCOCCOCCOC(=O)/C1=C/CC[C@@]3(C)O[C@H]3[C@H]3OC(=O)C(=C)[C@@H]3CC1)=C\CC[C@@]1(C)O[C@@H]21 | < 4.30 | 4.82 | > 2 | < 4.30 | < 4.30 | < 4.30 | 4.98 | < 4.30
3 | C=C1C(=O)O[C@H]2[C@H]1CC/C(C(=O)OCCOCCOCCOCCOCCOCCOCCOCCOCCOCCOCCOCCOCCOCCOCCOCCOCCOCCOC(=O)/C1=C/CC[C@@]3(C)O[C@H]3[C@H]3OC(=O)C(=C)[C@@H]3CC1)=C\CC[C@@]1(C)O[C@@H]21 | < 4.30 | < 4.30 | > 2 | < 4.30 | < 4.30 | < 4.30 | < 4.30 | < 4.30
4 | Cn1c2cc([S+](C)[O-])sc2c2cnn(Cc3cccc(N)c3)c(=O)c21 (stereo not drawn) | 4.18 | 4.06 | – | 4.31 | 4.25 | 4.09 | 4.07 | 4.05

Compounds with a higher pIC50 (U-251), results first:

Row | pIC50 (U-251) | pIC50 (U-87 MG) | fold change (FC) (Pyruvate kinase PKM) | SMILES | pIC50 [1] | pIC50 (NIH3T3) | pIC50 (C6) | pIC50 (U-118-MG) | pIC50 (SF-126)
5 | 4.32 | 6.82 | – | COc1cccc2c1C(=O)c1c(O)c3c(c(O)c1C2=O)C[C@@](O)(C(=O)CO)C[C@@H]3O[C@H]1C[C@H](N)[C@H](O)[C@H](C)O1 [DOXORUBICIN HYDROCHLORIDE] | 5.74 | 6.47 | 7.22 | 7.05 | 6.59
6 | 4.63 | < 4.30 | > 2 | C=C1C(=O)O[C@H]2[C@H]1CC/C(C(=O)OCCOCCOCCOCCOCCOCCOCCOCCOCCOCCOC(=O)/C1=C/CC[C@@]3(C)O[C@H]3[C@H]3OC(=O)C(=C)[C@@H]3CC1)=C\CC[C@@]1(C)O[C@@H]21 | 4.61 | < 4.30 | 4.85 | 4.73 | 4.64
7 | 4.90 | 5.36 | – | C=C1C(=O)O[C@@H]2C3O[C@]3(C)CC/C=C(\C)CC[C@@H]12 (stereo partly drawn) | 5.02 | 5.15 | 5.26 | 5.23 | 4.77

— ChEMBL document CHEMBL4376892, “Identification of Parthenolide Dimers as Activators of Pyruvate Kinase M2 in Xenografts of Glioblastoma Multiforme in Vivo” (J Med Chem, 2020)
